Measurements taken from US7999119B2, “Compounds having CRTH2 antagonist activity” (Oxagen Limited, priority 2006, dated 2011).
Several values for one entry are separate records, joined by “and”; a condition that tells them apart may be missing. Equal values may be shown once. Read-outs that look alike come from different tables or passages of the source.

Assays:
[1] = tested on: DK-PGD2-induced blood eosinophilia; experiment: Inhibition of DK-PGD2-induced blood eosinophilia in rats; assay type: in vivo, rat; conditions: female rats, oral dosing 30 min before 10 μg DK-PGD2 intracardiac; ED50 from dose-response curve; the values are: ED50
Method: Evaluation of Compounds of General Formula (I) as Inhibitors of 13,14-dihydro-15-keto prostaglandin D2 (DK-PGD2)-Induced Blood Eosinophilia in Rats
The test compound was dissolved in DMSO and diluted with water to give a final dosing volume of 2 ml/kg.
Female rats (175-250 g; UH colony) were dosed orally with test compound (or vehicle).
30 min after dosing all animals were anaesthetised with isoflurane.
Following induction of anaesthesia, animals receive an intracardiac injection of 10 μg DK-PGD2 in 0.3 ml heparinised (10 U/ml) saline. Control animals received an injection of 0.3 ml heparinised saline.
60 min after the intracardiac injection, animals were injected with an overdose of pentobarbitone sodium and a blood sample was taken (into heparin) by cardiac puncture while the rat was anaesthetised but not dead.
An aliquot of blood (100 μl) was added to Turk's solution and the total leukocyte count determined with a haemocytometer.
A further aliquot of blood (500 μl) was mixed with an equal volume of 4% Dextran (mw 500,000) and the erythrocytes allowed to settle. A cytospin preparation was made from the resulting leukocyte rich fraction.
Cytospin preparations were fixed with methanol (5 min) and stained with May-Grunwald (5 min) and Giemsa (15 min) stains. Finally cytospins were washed in phosphate buffer (pH6.8) and air dried.
Differential leukocyte counts were obtained from the cytospin preparations.
Blood eosinophil numbers were determined from the total leukocyte count and the percentage eosinophils (differential count).
Because it was impractical to generate sufficient data in any given experiment, data were obtained over a number of replicate experiments. Data from these replicate experiments were pooled, to provide at least 5 animals in each group and a dose-response curve fitted following a significance test (Mann Whitney) to determine whether or not DK-PGD2 caused a significant increase in blood eosinophils (GraphPad, Prism). A difference between groups was taken to be significant when P<0.05. ED50 values were calculated from the dose-response curve.

[2] = Pharmacokinetics following oral administration in the rat; assay type: in vivo
Method: Investigation of Pharmacokinetics of Compounds of General Formula (I) Following Oral Administration in the Rat
Rats were weighed on the day of dosing.
The test material was prepared as a 0.3 mg/mL suspension in 1% carboxy-methyl-cellulose (CMC).
Three groups of 3 rats were dosed as follows:
Doses were administered as a single oral dose using a gavage tube at a constant dose volume of 10 mL/kg.
At each sampling time point blood samples (approximately 0.3 mL) was taken from a catheter inserted into a lateral tail vein prior to the start of the experiment. The final blood sample (approximately 2 mL) from each animal was taken by cardiac puncture under isoflurane anaesthesia following which the animal was killed by exsanguination. Blood samples were taken into individual heparinised containers. Blood samples were collected at the following times post-dose:
Following collection, the blood samples were centrifuged (approximately 10,000×g, 2 min at 4° C.) and the plasma stored as one aliquot at approximately −20° C. pending analysis of drug concentrations by LC-MS/MS.
The plasma samples were analysed for test material concentrations at BioDynamics using an LC-MS/MS method developed at BioDynamics.

[3] = tested on: PGD2 induced eosinophil shape change; experiment: Human whole blood eosinophil shape change assay; assay type: cell-based
Method: Human Whole Blood Eosinophil Shape Change Assay
Compounds 1 to 3 were assayed for their effect on PGD2 induced eosinophil shape change and were compared with Comparator Compounds A to G.
Shape Change Assay in Whole Blood
Compounds (1 μl, 200× final concentration) were added directly to 200 μl whole blood, mixed well and incubated for 15 min, 37° C., 5% CO2. After this time, cell shape was fixed by addition of 300 μl Cytofix™ buffer (BD Biosciences), 15 min on ice. 10 ml RBC lysis buffer was added to the fixed cells, incubated 5 min, at room temperature and centrifuged, 300×g for 5 min. Supernatant (containing lysed red cells) was removed and the lysis step was repeated. Leukocytes were resuspended in 250 μl RPMI/10% FCS and shape change analysed by FACS. Eosinophils were gated out based on their autofluorescence and 2000 eosinophil events were counted per sample. Data were analysed in triplicate.

[4] = rat, 3 mg/kg p.o, individual male animals, 3 mg/kg

Work on `Cc1c(Cc2ccccc2S(=O)(=O)c2ccccc2)c2cc(F)ccc2n1CC(=O)O` [Compound 1, 2-(5-fluoro-2-methyl-3-(2-(phenylsulfonyl)benzyl)-1H-indol-1-yl)acetic acid] yielded a Potency in inhibition of DK-PGD2-induced blood eosinophilia [1] of 2.5 µg/kg, a concentration at 0.25 h ([2]; male, rat, plasma, po, 3 mg/kg, rat, 3 mg/kg oral, 0.25 h, individual male animals, read-out: Concentration in Blood) of 1160 ng/mL and a concentration at 0.25 h ([2]; male, rat, plasma, po, 3 mg/kg, rat, 3 mg/kg oral, 0.25 h, mean, read-out: Concentration in Blood, Mean) of 1450 ng/mL. The concentration at 0.5 h ([2]; male, rat, plasma, po, 3 mg/kg, rat, 3 mg/kg oral, 0.5 h, individual male animals, read-out: Concentration in Blood) was 2680 ng/mL, the concentration at 0.5 h ([2]; male, rat, plasma, po, 3 mg/kg, rat, 3 mg/kg oral, 0.5 h, mean, read-out: Concentration in Blood, Mean) was 2910 ng/mL and the concentration at 1 h ([2]; male, rat, plasma, po, 3 mg/kg, rat, 3 mg/kg oral, 1 h, individual male animals, read-out: Concentration in Blood) was 3840 ng/mL. For the same compound, the concentration at 1 h ([2]; male, rat, plasma, po, 3 mg/kg, rat, 3 mg/kg oral, 1 h, mean, read-out: Concentration in Blood, Mean) was 4000 ng/mL, the concentration at 2 h ([2]; male, rat, plasma, po, 3 mg/kg, rat, 3 mg/kg oral, 2 h, individual male animals, read-out: Concentration in Blood) was 4330 ng/mL and the concentration at 2 h ([2]; male, rat, plasma, po, 3 mg/kg, rat, 3 mg/kg oral, 2 h, mean, read-out: Concentration in Blood, Mean) was 3950 ng/mL. For the same compound, the concentration at 4 h ([2]; male, rat, plasma, po, 3 mg/kg, rat, 3 mg/kg oral, 4 h, individual male animals, read-out: Concentration in Blood) was 1890 ng/mL, the concentration at 4 h ([2]; male, rat, plasma, po, 3 mg/kg, rat, 3 mg/kg oral, 4 h, mean, read-out: Concentration in Blood, Mean) was 1540 ng/mL and the concentration at 6 h ([2]; male, rat, plasma, po, 3 mg/kg, rat, 3 mg/kg oral, 6 h, mean, read-out: Concentration in Blood, Mean) was 1050 ng/mL. The concentration at 8 h ([2]; male, rat, plasma, po, 3 mg/kg, rat, 3 mg/kg oral, 8 h, mean, read-out: Concentration in Blood, Mean) was 734 ng/mL, the concentration at 12 h ([2]; male, rat, plasma, po, 3 mg/kg, rat, 3 mg/kg oral, 12 h, individual male animals, read-out: Concentration in Blood) was 455 ng/mL and the concentration at 12 h ([2]; male, rat, plasma, po, 3 mg/kg, rat, 3 mg/kg oral, 12 h, mean, read-out: Concentration in Blood, Mean) was 375 ng/mL. The concentration at 24 h ([2]; male, rat, plasma, po, 3 mg/kg, rat, 3 mg/kg oral, 24 h, mean, read-out: Concentration in Blood, Mean) was 47.4 ng/mL, the AUC(0-inf) ([2]; male, rat, plasma, po, 3 mg/kg, rat, 3 mg/kg p.o, individual male animals, read-out: AUCinf) was 23800 ng·h/mL and the Cmax ([2]; male, rat, plasma, po, 3 mg/kg, rat, 3 mg/kg p.o, individual male animals, read-out: Cmax) was 4330 ng/mL. The Tmax ([2]; male, rat, plasma, po, 3 mg/kg, rat, 3 mg/kg p.o, individual male animals, read-out: Tmax) was 2 h, the half-life ([2]; male, rat, plasma, po, 3 mg/kg, rat, 3 mg/kg p.o, individual male animals, read-out: T½ (converted)) was 4.11 h and the AUC(0-inf) ([2]; male, rat, plasma, po, 3 mg/kg, rat, 3 mg/kg p.o, mean, summary without unit (Table 12), read-out: AUCinf (mean)) was 19200 ng·h/mL. The Cmax ([2]; male, rat, plasma, po, 3 mg/kg, rat, 3 mg/kg p.o, mean, summary without unit (Table 12), read-out: Cmax (mean)) was 4160 ng/mL, the AUC(0-inf) ([2]; male, rat, plasma, po, 3 mg/kg, rat, 3 mg/kg p.o, mean, read-out: AUCinf, Mean) was 19300 ng·h/mL and the Cmax ([2]; male, rat, plasma, po, 3 mg/kg, rat, 3 mg/kg p.o, mean, read-out: Cmax, Mean) was 4160 ng/mL. For the same compound, the Tmax ([2]; male, rat, plasma, po, 3 mg/kg, rat, 3 mg/kg p.o, mean, read-out: Tmax, Mean) was 1.3 h, the half-life ([2]; male, rat, plasma, po, 3 mg/kg, rat, 3 mg/kg p.o, mean, read-out: T½, Mean (converted)) was 3.6 h and the “Fold over IC50 at 12 h” value ([2]; mean blood concentration at 12 h (rat, 3 mg/kg p.o.) divided by whole blood IC50 in ng/ml) was 170. For the same compound, the “Concentration in Blood” value ([2]; rat, 3 mg/kg oral, 0.25 h, individual male animals, 3 mg/kg) was 1496.0 ng/mL and 1678.0 ng/mL, the “Concentration in Blood” value ([2]; rat, 3 mg/kg oral, 0.5 h, individual male animals, 3 mg/kg) was 2792.4 ng/mL and 3264.7 ng/mL and the “Concentration in Blood” value ([2]; rat, 3 mg/kg oral, 1 h, individual male animals, 3 mg/kg) was 3895.3 ng/mL and 4262.9 ng/mL. For the same compound, the “Concentration in Blood” value ([2]; rat, 3 mg/kg oral, 2 h, individual male animals, 3 mg/kg) was 3454.7 ng/mL and 4051.1 ng/mL, the “Concentration in Blood” value ([2]; rat, 3 mg/kg oral, 4 h, individual male animals, 3 mg/kg) was 1046.5 ng/mL and 1670.8 ng/mL and the “Concentration in Blood” value ([2]; rat, 3 mg/kg oral, 6 h, individual male animals, 3 mg/kg) was 1423.7 ng/mL and 547.5 ng/mL and 1183.1 ng/mL. The “Concentration in Blood” value ([2]; rat, 3 mg/kg oral, 8 h, individual male animals, 3 mg/kg) was 1099.9 ng/mL and 404.7 ng/mL and 696.2 ng/mL, the “Concentration in Blood” value ([2]; rat, 3 mg/kg oral, 12 h, individual male animals, 3 mg/kg) was 256.6 ng/mL and 412.8 ng/mL and the “Concentration in Blood” value ([2]; rat, 3 mg/kg oral, 24 h, individual male animals, 3 mg/kg) was 68.5 ng/mL and 10.2 ng/mL and 63.5 ng/mL. For the same compound, the AUCinf [2, 4] was 14846 ng·h/mL and 21731 ng·h/mL, the Cmax [2, 4] was 3895 ng/mL and 4263 ng/mL and the Tmax [2, 4] was 1 h. The T½ [2, 4] was 3.07 h and 4.59 h, the IC50 ([3]; Homo sapiens, Eosinophil, 10 nm PGD2-induced eosinophil shape change, human whole blood, read-out: Whole Blood IC50) was 5 nM and the IC50 ([3]; Homo sapiens, Eosinophil, Table 12 summary of whole blood eosinophil shape change IC50, read-out: IC50 (μmol)) was 5 nM. For the same compound, the “IC50” value ([3]; whole blood eosinophil shape change IC50 converted to ng/mL) was 2.2 ng/mL.
